From patent US20260248791A1, “METHODS FOR TREATING DERMATOMYOSITIS WITH BREPOCITINIB” (priority 2023, published 2026) come the findings set out here.

Data set [1] deals with Human skeletal muscle myoblasts (HSMM) differentiated into myotubes. The experiment in a line: IFN-I induced myotube damage (myosin 4 surface area). It counts as cell-based. The following applies: for mean myosin surface area: 48 hours IFN-I. How it is done: (§1) Timeline for Brepocitinib efficacy evaluation for IFN-I induced pathological changes characteristic of DM in vitro. As shown in the schematic image of FIG. 1, human skeletal muscle myoblasts (HSMM) were cultured and differentiated into myotubes then treated with vehicle control or IFN-I (recombinant Human IFN alpha A and Human IFN alpha D) to induce cellular damage. Myotubes were also preincubated for 1 hour with Brepocitinib (1 μM or 130 nM, the latter is equivalent to the average free plasma concentration after administration of 30 mg once-daily) prior to IFN-I treatment. Immunofluorescence staining followed by image analysis to determine myosin 4 surface area were conducted after 48 hours of IFN-I treatment. Human dermal microvascular endothelial cells (HMEC-1) were cultured and, once vascular networks were established, cells were treated with IFN-I or vehicle control. Cells were also preincubated for 1 hour with Brepocitinib. Under light microscopy, 9 hours after treatment, the number of nodes, master segment length, and total mesh area were analyzed.
Human skeletal muscle myoblasts (Lonza, CC-2580) were cultured in SkGM™-2 media (Lonza, CC-3245) and sub-cultured using ReagentPack™ Subculture Reagents (Lonza, CC-5034). They were then differentiated into myotubes by culturing in differentiation medium [DMEM/F12+2% Horse serum (Thermofisher, 16050122)] for 3-5 days until most of the myoblast cells differentiated into multinucleated myotubes. The myotubes were then preincubated with vehicle or Brepocitinib prior to type I interferon (R&D, 11200-2) exposure at concentrations (FIG. 7). After 48 hours of treatment, cells were fixed and stained with Myosin 4 Monoclonal antibody (MF20; Thermofisher, 14-6503-82) and Hoechst for nuclei visualization. The effect on total myotube surface area was evaluated via fluorescent image analysis. […] The effect of type I IFN exposure±Brepocitinib treatment on the number of nodes, master segment length, and total mesh area was evaluated by taking bright-field images every 16 hours.

In data set [2] the test system is Human dermal microvascular endothelial cells (HMEC-1). The experiment in a line: IFN-I induced endothelial cell damage (vascular network). The following applies: Brepocitinib preincubation. Type of data set: cell-based. As to the method:
as §1, with “Human dermal microvascular endothelial cells (HMEC-1) were cultured and, once vascular networks were established, cells were treated with IFN-I or vehicle control. Cells were also preincubated for 1 hour with Brepocitinib.” left out
Human skeletal muscle myoblasts (Lonza, CC-2580) were cultured in SkGM™-2 media (Lonza, CC-3245) and sub-cultured using ReagentPack™ Subculture Reagents (Lonza, CC-5034). […] The effect on total myotube surface area was evaluated via fluorescent image analysis. […] The effect of type I IFN exposure±Brepocitinib treatment on the number of nodes, master segment length, and total mesh area was evaluated by taking bright-field images every 16 hours.

Another data set has as its system CYP3A4/5. The following applies: human.
The test system of data set [3] is psoriatic arthritis, plaque psoriasis, ulcerative colitis, alopecia areata, and hidradenitis suppurativa. The data set can be described thus: 5 completed Phase 2 placebo-controlled studies. It counts as in vivo, human. The following applies: each of 5 placebo-controlled Phase 2 studies. From the text:
Primary efficacy endpoints with Brepocitinib. […] These clinical data, along with the overlapping pathogenic cytokine profile, support the rationale for evaluating Brepocitinib in DM.

The subject of data set [4] is cytokine-induced phosphorylation of STATs in human PBMCs and whole blood. The experiment in a line: Cytokine-induced STAT phosphorylation. It counts as cell-based. From the text:
(§2) Pharmacology. Brepocitinib inhibits various TYK2- and JAK1-dependent functions in different cell types such as cytokine-induced phosphorylation of signal transducer and activator transcriptions (STATs) in human peripheral blood mononuclear cells (PBMCs) and whole blood; differentiation of T helper (Th) 1, Th17, and B cells, interleukin (IL)-12-induced IFNγ production in human PBMCs; and IFN-1 gene signature induced by immune complexes in human PBMCs.

The target in the next data set is OCT2 (Homo sapiens, UniProt O15244). The experiment in a line: In vitro transporter inhibition, OCT2.
Data set [5] can be described thus: Cardiovascular safety pharmacology studies. The following applies: oral administration.
The subject of data set [6] is rat adjuvant-induced arthritis. The experiment in a line: Rat adjuvant-induced arthritis disease model. Particulars: in vivo.
From the text: as §2

The subject of data set [7] is human PBMCs. The data set can be described thus: IFN-1 gene signature induced by immune complexes. Type of data set: cell-based.
From the text: as §2

Data set [8] can be described thus: Solubility across physiological pH range. Type of data set: physicochemical.
Another data set is described as follows: clinical. Particulars: human, in vivo.
Data set [9] relates to human PBMCs. The experiment in a line: IL-12-induced IFNγ production. Type of data set: cell-based.
From the text: as §2

The target of data set [10] is multidrug and toxin extrusion (MATE) 1 (Homo sapiens, UniProt Q96FL8). The data set can be described thus: In vitro transporter inhibition, MATE1.
The test system of data set [11] is T helper (Th) 1, Th17, and B cells. The data set can be described thus: Differentiation of Th1, Th17 and B cells. It counts as cell-based.
From the text: as §2

For a further data set, the system named is psoriatic arthritis. The experiment in a line: Phase 2 study in psoriatic arthritis (ACR20). It counts as in vivo, human. The following applies: 30 mg; after 4 weeks; psoriatic arthritis patients. From the text: As part of the clinical development program for oral Brepocitinib, a number of Phase 1 and Phase 2 studies have been completed or have a report in preparation. […] The multiple autoimmune diseases for which there is observed clinical efficacy data for Brepocitinib have mechanistic pathway similarities to DM. For example, psoriasis is driven by IL-17, which is downstream of IL-12 and IL-23 signaling via TYK2 and/or JAK1, and alopecia areata is characterized by excessive activity of IFN-γ, a type II interferon which also signals via JAK1. Of note, dose dependent reductions in IP-10 (CXCL10), an IFN-γ inducible gene, have been observed in Brepocitinib clinical studies, separating from placebo at doses ≥10 mg QD. Importantly, in these phase 2 studies, clinical response with Brepocitinib treatment rapidly separates from placebo. For example, in the phase 2 study assessing Brepocitinib's efficacy in psoriatic arthritis, Brepocitinib 30 mg achieved a 52% ACR20 response rate after 4 weeks compared to a 19% response rate in placebo patients.

For data set [12], the system named is cytokine signaling pathways that engage TYK2 and/or JAK1, including IFNα, IFNg, IL-12, and IL-23. The experiment in a line: Cytokine signaling in human whole blood. It counts as cell-based. The following applies: IL-12, IL-23.
A further data set concerns the target CYP1A2 (Homo sapiens, UniProt P05177).

OCT2, sequence (O15244 whole entry): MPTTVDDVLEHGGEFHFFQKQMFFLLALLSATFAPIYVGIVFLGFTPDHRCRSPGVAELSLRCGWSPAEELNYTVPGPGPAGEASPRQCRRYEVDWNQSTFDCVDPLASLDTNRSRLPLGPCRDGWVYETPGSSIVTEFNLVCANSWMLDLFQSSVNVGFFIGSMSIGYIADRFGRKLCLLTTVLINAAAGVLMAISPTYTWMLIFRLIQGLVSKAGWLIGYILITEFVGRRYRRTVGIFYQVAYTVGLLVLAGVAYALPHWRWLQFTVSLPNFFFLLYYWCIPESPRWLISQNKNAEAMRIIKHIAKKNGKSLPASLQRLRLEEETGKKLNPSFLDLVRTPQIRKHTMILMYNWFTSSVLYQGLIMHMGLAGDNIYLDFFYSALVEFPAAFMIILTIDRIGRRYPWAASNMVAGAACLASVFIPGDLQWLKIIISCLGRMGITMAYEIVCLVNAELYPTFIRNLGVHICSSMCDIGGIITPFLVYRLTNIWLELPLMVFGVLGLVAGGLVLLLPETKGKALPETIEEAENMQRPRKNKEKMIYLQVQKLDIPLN
multidrug and toxin extrusion (MATE) 1, sequence (Q96FL8 whole entry): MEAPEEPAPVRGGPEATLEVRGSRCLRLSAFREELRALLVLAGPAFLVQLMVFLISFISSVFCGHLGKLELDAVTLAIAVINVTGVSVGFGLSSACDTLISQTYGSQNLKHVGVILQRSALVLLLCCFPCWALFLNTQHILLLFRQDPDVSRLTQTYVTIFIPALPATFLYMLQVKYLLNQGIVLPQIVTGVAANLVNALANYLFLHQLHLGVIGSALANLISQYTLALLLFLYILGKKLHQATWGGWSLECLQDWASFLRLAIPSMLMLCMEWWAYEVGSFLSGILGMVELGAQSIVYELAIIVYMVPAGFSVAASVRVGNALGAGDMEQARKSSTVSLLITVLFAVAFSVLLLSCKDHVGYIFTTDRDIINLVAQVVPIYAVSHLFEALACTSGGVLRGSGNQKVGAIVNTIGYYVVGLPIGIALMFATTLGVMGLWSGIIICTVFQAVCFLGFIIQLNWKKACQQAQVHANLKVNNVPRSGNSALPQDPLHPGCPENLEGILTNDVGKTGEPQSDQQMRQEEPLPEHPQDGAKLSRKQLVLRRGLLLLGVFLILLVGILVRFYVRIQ
CYP1A2, sequence (P05177 whole entry): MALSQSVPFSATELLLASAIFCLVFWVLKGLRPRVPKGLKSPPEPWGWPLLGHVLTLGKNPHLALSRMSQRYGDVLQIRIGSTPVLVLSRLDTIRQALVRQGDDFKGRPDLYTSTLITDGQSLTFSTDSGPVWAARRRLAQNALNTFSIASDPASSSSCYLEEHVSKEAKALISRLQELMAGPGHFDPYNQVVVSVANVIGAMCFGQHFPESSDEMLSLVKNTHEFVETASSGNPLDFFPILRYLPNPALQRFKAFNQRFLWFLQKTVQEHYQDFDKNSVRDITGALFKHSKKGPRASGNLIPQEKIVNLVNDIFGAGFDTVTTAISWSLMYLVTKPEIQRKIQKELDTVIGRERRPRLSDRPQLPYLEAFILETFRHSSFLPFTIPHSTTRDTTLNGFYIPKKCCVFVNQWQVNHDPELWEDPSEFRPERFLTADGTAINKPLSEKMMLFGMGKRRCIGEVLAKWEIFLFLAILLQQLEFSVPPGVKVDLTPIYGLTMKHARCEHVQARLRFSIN

What is called half-life is the time in which the quantity being followed falls by half. What is called bioavailability is the share of a dose that reaches the circulation, judged against a reference dose that is usually intravenous. Read a low bioavailability as little systemic uptake. On to `Cn1cc(Nc2nccc(N3C[C@H]4CC[C@@H](C3)N4C(=O)[C@@H]3CC3(F)F)n2)cn1` [Brepocitinib, [(1S)-2,2-difluorocyclo-propyl][(1R,5S)-3-{2-[(1-methyl-1H-pyrazol-4-yl)amino]pyrimidin-4-yl}-3,8-diazabicyclo[3.2.1]oct-8-yl]methanone], for which the “mean myosin surface area” value is listed as 94.1 % of the vehicle control in data set [1] (130 nM preincubation 1 hour) and 100 % of the vehicle control in [1] (1 μM preincubation 1 hour). The “IFN-I induced damage in myotubes” value in data set [1] (Brepocitinib preincubation, 130 nM and 1 μM) is recorded as “almost completely prevented”. The “IFN-I induced damage in endothelial cells” value in [2] is recorded as “almost completely prevented”. For the same molecule, the “in vitro fraction metabolized” value with CYP3A4/5 worked out at 0.77; on CYP1A2 it was 0.14. Moreover, the “Primary efficacy outcome in Phase 2 studies” value in data set [3] is “clinically meaningful and statistically significant results”. For the same molecule, the “cytokine-induced phosphorylation of STATs” value in [4] is reported as “inhibits”. For the same molecule, at OCT2, the “In vitro inhibition of OCT2” value is given as “inhibition”. For the same molecule, the “cardiovascular safety pharmacology findings” value in [5] is “effects on blood pressure, heartrate, and corrected QT interval (QTc) interval were observed”. In addition, the “effect in rat adjuvant-induced arthritis” value in [6] is reported as “anti-inflammatory effects”. Also, the “IFN-1 gene signature induced by immune complexes” value in the data set with human PBMCs [7] was “inhibits”. Further, the “Solubility in 250 mL of the media” value in data set [8] is on record as “fully soluble”. In addition, the Solubility result in data set [8] (across the physiological pH range) is listed as “highly soluble”. The molecule further yielded a half-life in the data set “clinical” of 4 to 8 h. For the same molecule, the bioavailability was ~75% in “clinical” (absolute bioavailability) and ~96% in “clinical” (bioavailability of tablets relative to solution). Also, in the data set on human PBMCs [9], the “IL-12-induced IFNγ production” value was “inhibits”. The “In vitro inhibition of MATE1” value in data set [10] is “inhibition”. In addition, in data set [11], the “differentiation of Th1, Th17, and B cells” value was “inhibits”. Besides, in the data set with psoriatic arthritis, the ACR20 response rate came to 52%. Moreover, in data set [12], the “Inhibition of cytokine signaling pathways implicated in DM” value is recorded as “inhibited”.
